Measured values: patent US20260364185A1, “Estrogen Receptor Modulator and Use Thereof” (JIANGSU VCARE PHARMATECH CO., LTD., priority 2023, published 2026)
pIC50: −log10 of the molar value.

How the values were obtained:
MCF7 cells = assay: MCF7 cell activity test (CCK8 proliferation inhibition); type: cell-based; conditions: Homo sapiens, MCF7, 144 h, 6 days incubation
Protocol: Experimental Example 1: MCF7 cell activity test
Cell culture: MCF7 cells (culture conditions: MEM medium+20% FBS+1% essential amino acids++1 mg/100 ml insulin, 37° C., 5% CO2). Plating: The cells subcultured into the logarithmic growth phase were collected and transferred into a centrifuge tube, and centrifuged at 800 rpm for 5 min. The cells were resuspended in complete medium and counted. The cells were diluted and adjusted to a final concentration of 30,000 cells/mL. The cells were then seeded into a 96-well plate with 100 μL per well and incubated in an incubator overnight. Administration: Each group of drug solutions was added into the 96-well plate, 100 μL per well, n=3 for each drug concentration. Meanwhile, negative wells (n=6) and blank wells (n=3) were set up. The 96-well plate was incubated in the incubator for further 6 days. CCK8 reagent was added to the 96-well plate, 20 μL per well, and then the plate was placed in the incubator for further 4 h. The absorbance of the solution was measured at a wavelength of 450 nm using an enzyme reader. The proliferation inhibition rate was calculated and the half inhibitory concentration IC50 value was calculated using Graphpad Prism 6.0 software.

MCF-7 tumor = assay: In vivo tumor inhibitory activity test (MCF-7 tumor, estradiol-supplemented mice); conditions: 5 mg/kg/d (I.V.), Day 19, relative tumor volume inhibition rate, P < 0.05
Protocol: Experimental Example 3: In Vivo Tumor Inhibitory Activity Test
MCF-7 cell culture (culture conditions: MEM medium+20% FBS+1% essential amino acids ++1 mg/100 ml insulin, 37° C., 5% CO2). The cells subcultured into the logarithmic growth phase were collected and transferred into a centrifuge tube, and centrifuged at 800 rpm for 5 min. On the day of inoculation, the cell density was adjusted to 3*10^7 cells/mL. […]
Grouped administration: When the average tumor volume reached 80-150 mm^3, the animals were randomly grouped according to tumor volume, with the coefficient of variation (CV) of tumor volumes not exceeding ⅓ of the mean volume. […] The body weight of the mice was measured before administration, and the administration was based on the body weight on that day. Experimental observation and data collection: After cell inoculation, the effect of the tumor on the normal behavior of the animals was routinely monitored every week. […] After the start of administration, the mice were weighed and dosed daily, and tumor volume was measured twice a week. The tumor volume was calculated as follows: tumor volume (mm^3)=0.52×tumor long diameter (mm) x tumor short diameter (mm) 2. […]
[formula] […] All data were analyzed using GraphPad Prism 6.0.

For Cn1nc(N2CCC(=O)NC2=O)c2cc(F)c(C3(O)CCN(C[C@@H]4CCCC[C@H]4CN4CCN(c5ccc([C@@H]6c7ccc(O)cc7CC[C@@H]6c6ccccc6)cc5)CC4)CC3)cc21 [VI-23, 1-(5-fluoro-6-(4-hydroxy-1-(((1R, 2R)-2-((4-(4-((1R, 2S)-6-hydroxy-2-phenyl-1,2,3,4-tetrahydronaphthalen-1-yl)phenyl)piperazin-1-yl)methyl)cyclohexyl)methyl)piperidin-4-yl)-1-methyl-1H-indazol-3-yl)dihydropyrimidine-2,4 (1H, 3H)-dione], the pIC50 (MCF7 cells) was over 7.60 and the “TGI (Day 19)” value (MCF-7 tumor) was 77.9%.
